Measured values taken from patent US8993624B2, “Method of preventing and treating inflammatory diseases and disorders with abscisic acid” (Virginia Tech Intellectual Properties, Inc., priority 2010, dated 2015).

Legend:
[1] = test system: LPS-induced splenic gene expression; assay: LPS challenge in mice, spleen real-time qRT-PCR
Influenza A/Udorn (H3N2) = assay: Post-exposure ABA by gavage, Influenza A/Udorn challenge in mice; type: in vivo, mouse
[2] = test system: CD3/CD28-stimulated splenocytes; assay: Intracellular cAMP and mRNA in CD3/CD28-stimulated splenocytes; type: cell-based, mouse
Description: Intracellular cAMP in CD3/CD28-stimulated splenocytes and LPS-stimulated macrophages—Spleens were excised from C57BL6/J mice under sterile conditions. Cells were released by disrupting the tissue between frosted glass slides and red blood cells were lysed with erythrocyte lysis buffer. Splenocytes were enumerated with a Coulter Counter (Beckman Coulter, Fullerton, Calif.) and seeded in cRPMI at 1×10^6/ml onto 24-well plates pre-coated with anti-mouse CD3 (5 μg/mL; BD Pharmingen) and anti-mouse CD28 (1 μg/mL; BD Pharmingen). […] For intracellular assessment of cAMP, cells were harvested into 0.1 M HCl and the lysates were collected. The cAMP concentration of the lysates was determined using an EIA kit (Assay Designs, Ann Arbor, Mich.).

NF-κB [3] = assay: NF-κB reporter activity assay in RAW macrophages; details: data not shown
NF-κB p65 = NF-κB p65 activity in BMM stimulated with LPS/IFN-γ; type: cell-based, mouse
Description: Bone Marrow-derived Macrophage (BMM) Cultures—Bone marrow cells from PPAR γ flfl; MMTV-Cre− (flfl-Cre−) and flfl-Cre+ mice were cultured in DMEM with M-CSF (50 ng/ml) for 7 days. Fresh media with M-CSF was added on day 3. […] Following differentiation macrophages were directly stimulated with LPS (100 ng/ml) as previously described for 12 hours (21). ABA was added to macrophage cultures at a concentration of 2.5 μM. […]
NF-κB and NFAT activities—Spleens were diced into smaller pieces in lysis buffer containing dithiothreitol and a protease inhibitor cocktail and then further disrupted using a dounce ground glass homogenizer at 4° C. […] The extracts were used to perform a Bradford-based assay for quantifying the protein concentrations and stored at −80° C. NF-κB and NFATc1 activities were measured as previously described (13) by using the Trans-AM™ NF-κB p65 and the Trans-AM™ NFATc1 ELISA-based assays (Active Motif), respectively per the manufacturer's instructions.

NF-κB [4] = assay: NF-κB activity in spleens of LPS-challenged mice; type: in vivo, mouse; details: spleen
Description: NF-κB and NFAT activities—Spleens were diced into smaller pieces in lysis buffer containing dithiothreitol and a protease inhibitor cocktail and then further disrupted using a dounce ground glass homogenizer at 4° C. Nuclear extraction for tissue homogenate and BMM was performed using the Nuclear Extract kit (Active Motif, Carlsbad, Calif.) per the manufacturer's instructions. The extracts were used to perform a Bradford-based assay for quantifying the protein concentrations and stored at −80° C. NF-κB and NFATc1 activities were measured as previously described (13) by using the Trans-AM™ NF-κB p65 and the Trans-AM™ NFATc1 ELISA-based assays (Active Motif), respectively per the manufacturer's instructions.

PPAR γ = biological target: T1, PPAR γ (Mus musculus, UniProt P37238); details: racemic mixture, 3T3-L1 preadipocytes; cited from earlier work
T1 construct: host or cells: 3T3-L1 preadipocytes
T1 sequence (P37238 1-505): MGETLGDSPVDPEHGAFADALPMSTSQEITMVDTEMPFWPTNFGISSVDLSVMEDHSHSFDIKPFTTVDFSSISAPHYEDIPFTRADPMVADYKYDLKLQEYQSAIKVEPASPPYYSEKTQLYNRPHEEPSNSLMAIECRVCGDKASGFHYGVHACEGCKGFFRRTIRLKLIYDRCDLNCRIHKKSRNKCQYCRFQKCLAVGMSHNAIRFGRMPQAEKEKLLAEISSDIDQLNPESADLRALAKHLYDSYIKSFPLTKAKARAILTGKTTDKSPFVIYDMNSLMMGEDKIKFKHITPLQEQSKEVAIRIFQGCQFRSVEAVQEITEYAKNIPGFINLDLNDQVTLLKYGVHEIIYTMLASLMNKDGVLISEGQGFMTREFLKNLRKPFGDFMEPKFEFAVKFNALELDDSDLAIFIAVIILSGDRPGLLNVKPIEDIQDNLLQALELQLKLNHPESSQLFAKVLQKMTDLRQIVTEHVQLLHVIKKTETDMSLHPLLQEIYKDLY

[5] = test system: LPS-induced systemic inflammation; assay: LPS challenge in mice, immune cell subsets by flow cytometry; type: in vivo, mouse
Description: Flow Cytometry—Mesenteric lymph nodes (MLN) and spleen-derived cells (2×10^5 cells/well) or whole blood (10 μL/well) were seeded onto 96-well plates, centrifuged at 4° C. at 3000 rpm for 4 minutes, and washed with PBS containing 5% fetal bovine serum and 0.09% sodium azide (FACS buffer). To assess differential monocyte/macrophage subsets, the cells were incubated in the dark at 4° C. for 20 minutes in FcBlock (20 μg/ml; BD Pharmingen), and then for an additional 20 minutes with fluorochrome-conjugated primary antibodies anti-F4/80-PE-Cy5 (5 μg/mL, eBioscience) and anti-CD 11b-Alexa Fluor 700 (2 μg/mL, eBioscience), and anti-TLR-4-PE-Cy7 (2 μg/mL, eBioscience). For lymphocyte assessment, cells were incubated with anti-CD4-FITC (2 μg/mL; BD Pharmingen), anti-CD8-PerCp-Cy5.5 (2 μg/mL, eBioscience), CD3 PE-Cy5 (2 μg/mL; BD Pharmingen), anti-TLR-4 PE-Cy7, and anti-IL17A-PE (2 μg/mL, eBioscience) as previously shown (23). Flow results were computed with a BD LSR II flow cytometer and data analyses was performed with FACS Diva software (BD).

SMILES: CC1=CC(=O)CC(C)(C)C1(O)/C=C/C(C)=C\C(=O)O (racemic) [ABA, abscisic acid]
- iNOS mRNA expression ([1]; data not shown): no effect
- effects of ABA on splenic gene expression ([1]; mice lacking PPAR γ in immune cells): abrogated
- NCOA6 mRNA expression ([1]; regardless of the LPS challenge): increased
- Glut4 mRNA ([1]; spleen, LPS challenge): mitigated the LPS-mediated suppression
- PPAR γ mRNA ([1]; spleen, LPS challenge): mitigated the LPS-mediated suppression
- TNF-α mRNA ([1]; spleen, LPS challenge): suppressed LPS-mediated up-regulation
- weight loss (Influenza A/Udorn (H3N2); 50 mg/kg): slightly suppressed weight loss, although the differences were not statistically significant
- weight loss and recovery (Influenza A/Udorn (H3N2); 100 mg/kg oral gavage once daily 10 days, from 4 hours post-infection): suppressed weight loss for both strains and accelerated recovery
- accumulation of pro-inflammatory tipDC in lung (Influenza A/Udorn (H3N2); 100 mg/kg, 7 dpi, FACS): lowered the accumulation of pro-inflammatory tipDC
- expression of MCP-1 in lungs (Influenza A/Udorn (H3N2); 3 and 7 dpi): lowered expression of MCP-1
- pulmonary angiopoietin like 4 (ANGIOPL4) mRNA expression (Influenza A/Udorn (H3N2); day 7 post-infection): upregulated
- pulmonary interleukin-10 (IL-10) mRNA expression (Influenza A/Udorn (H3N2); day 7 post-infection): upregulated
- pulmonary 5-LOX activating protein (FLAP) expression (Influenza A/Udorn (H3N2); day 10 post-infection): upregulation
- pulmonary 5-lipooxygenase (5-LOX) expression (Influenza A/Udorn (H3N2); day 10 post-infection): upregulation
- pulmonary LANCL2 expression (Influenza A/Udorn (H3N2); day 10 post-infection): upregulation
- pulmonary PPAR γ expression (Influenza A/Udorn (H3N2); day 10 post-infection): upregulation
- epithelial necrosis (Influenza A/Udorn (H3N2); lung, WT): ameliorated
- mucosal and submucosal inflammatory cell infiltration (Influenza A/Udorn (H3N2); lung, WT): ameliorated
- perivascular cuffing (Influenza A/Udorn (H3N2); lung, WT): ameliorated
- terminal airway infiltration (Influenza A/Udorn (H3N2); lung, WT): ameliorated
- beneficial effects on lung inflammatory lesions (Influenza A/Udorn (H3N2); mice lacking PPAR γ in myeloid cells (myeloid KO)): abrogated
- LANCL2 mRNA expression [2]: not LANCL2 mRNA expression
- PPAR γ expression [2]: upregulation of PPAR γ
- intracellular cAMP ([2]; ABA 10 μM): significantly increased intracellular cAMP
- phosphodiesterase activity ([2]; data not shown): without affecting phosphodiesterase activity
- NF-κB reporter activity (NF-κB [3]): increased
- NF-κB p65 activity in nuclear extracts (NF-κB p65; 2.5 μM ABA, PPAR γ-expressing primary macrophages): significantly decreased
- NF-κB activity (NF-κB p65; macrophages with loss of PPAR γ): further activation induced by ABA
- NF-κB activity (NF-κB [4]): did not affect
- PPAR γ activation (PPAR γ): activates PPAR γ
- TLR4 expression levels by macrophages ([5]; LPS-treated PPAR γ-expressing mice): reduced
- percentages of blood monocytes (F4/80+CD11b+) ([5]; LPS-treated immune cell-specific PPAR γ null mice, diet 36 days): significantly increased
- TLR4 expression in CD8+ T cells ([5]; non-LPS treated mice): significantly reduced
- TLR4 expression in MLN F4/80+CD11b+ macrophages ([5]; supplemented diet 36 days): significantly suppressed
